Assay results: PMC11062899, “De novo development of small cyclic peptides that are orally bioavailable” (Nature Chemical Biology, 2023)
pIC50, pKi: −log10 of the molar value. “And” between values parts separate entries of the source, which are not always exact repeats. Equal entries are not always repeated. Where two headings read alike, the source gives them in different places.

Target: human α-thrombin (Homo sapiens, UniProt P00734)
Test: Protease inhibition, Ki for human α-thrombin (fluorogenic substrate Z-Gly-Gly-Arg-AMC)
Assay type: biochemical
Settings: human alpha thrombin; for Slope normalized to DMSO (proteolytic substrate cleavage over time): replicates R1-R3; for pIC50: read-out: IC50, human alpha thrombin inhibition
Summary of the method: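 Inhibition was measured as AMC fluorescence from 50 μM substrate, monitored for 30 min at 25 °C, relative to a peptide-free control. Human and rat enzymes were present at 2 nM and 3 nM final, respectively, in 50 mM Tris-HCl pH 7.4, 150 mM NaCl, 10 mM MgCl2, 1 mM CaCl2. Ki derives from fitted IC50 via Cheng–Prusoff.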

[1] = average of R1-R3, read-out: Ki Average, human alpha thrombin inhibition
[2] = single replicates R1-R3, read-out: Ki, human alpha thrombin inhibition

pKi [1] | Slope normalized to DMSO (proteolytic substrate cleavage over time) (peptide 1.02E-03 uM) | Slope normalized to DMSO (proteolytic substrate cleavage over time) (peptide 1.04E+00 uM) | Slope normalized to DMSO (proteolytic substrate cleavage over time) (peptide 1.27E-04 uM) | Slope normalized to DMSO (proteolytic substrate cleavage over time) (peptide 1.30E-01 uM) | Slope normalized to DMSO (proteolytic substrate cleavage over time) (peptide 1.59E-05 uM) | Slope normalized to DMSO (proteolytic substrate cleavage over time) (peptide 1.63E-02 uM) | Slope normalized to DMSO (proteolytic substrate cleavage over time) (peptide 1.67E+01 uM) | Slope normalized to DMSO (proteolytic substrate cleavage over time) (peptide 2.03E-03 uM) | Slope normalized to DMSO (proteolytic substrate cleavage over time) (peptide 2.08E+00 uM) | Slope normalized to DMSO (proteolytic substrate cleavage over time) (peptide 2.54E-04 uM) | Slope normalized to DMSO (proteolytic substrate cleavage over time) (peptide 2.60E-01 uM) | Slope normalized to DMSO (proteolytic substrate cleavage over time) (peptide 3.18E-05 uM) | Slope normalized to DMSO (proteolytic substrate cleavage over time) (peptide 3.26E-02 uM) | Slope normalized to DMSO (proteolytic substrate cleavage over time) (peptide 3.33E+01 uM) | Slope normalized to DMSO (proteolytic substrate cleavage over time) (peptide 4.07E-03 uM) | Slope normalized to DMSO (proteolytic substrate cleavage over time) (peptide 4.17E+00 uM) | Slope normalized to DMSO (proteolytic substrate cleavage over time) (peptide 5.09E-04 uM) | Slope normalized to DMSO (proteolytic substrate cleavage over time) (peptide 5.21E-01 uM) | Slope normalized to DMSO (proteolytic substrate cleavage over time) (peptide 6.36E-05 uM) | SMILES | also measured
7.69 | 99.8 and 96.2 and 96.4 | 4.2 and 21.2 and 8.1 | 99.4 and 96.4 and 91.4 | 13.4 and 22.3 and 23.1 | 98.7 and 104.2 and 99.3 | 59.7 and 68.6 and 65.4 | 1.8 and 5.4 and -0.5 | 99.7 and 85.8 and 91.5 | 2.6 and 15.2 and 7.7 | 103.4 and 95.2 and 94.0 | 9.5 and 17.0 and 11.6 | 100.4 and 94.1 and 100.2 | 41.8 and 49.6 and 51.1 | 1.5 and 2.2 and 1.9 | 80.8 and 82.5 and 73.0 | -1.2 and 8.8 and 5.3 | 101.9 and 94.6 and 97.3 | 4.7 and 16.3 and 9.9 | 101.6 and 98.2 and 102.0 | O=C1CSCCC[C@H](NC(=O)c2ccc(Cl)s2)C(=O)N[C@@H](Cc2ccccc2)C(=O)N2CCC[C@@H]2CC(=O)NCCSC1 [compound 37] | Slope normalized to DMSO (proteolytic substrate cleavage over time) (peptide 6.51E-02 uM): 27.8 and 39.2 and 31.3; Slope normalized to DMSO (proteolytic substrate cleavage over time) (peptide 6.67E+01 uM): 4.9 and 8.1 and 5.5; Slope normalized to DMSO (proteolytic substrate cleavage over time) (peptide 7.95E-06 uM): 99.9 and 99.1 (2×); Slope normalized to DMSO (proteolytic substrate cleavage over time) (peptide 8.14E-03 uM): 73.2 and 74.4 and 76.4; Slope normalized to DMSO (proteolytic substrate cleavage over time) (peptide 8.33E+00 uM): -0.9 and 2.2 and 1.0; pIC50 (single replicates R1-R3): 7.66 and 7.53 and 7.54; Ki [2]: 16.8 nM (2×) and 22.8 nM (2×) and 22.2 nM (2×)
7.02 | 103.0 and 105.2 and 102.2 | 21.7 and 19.1 and 21.5 | 106.0 and 98.8 and 103.2 | 57.8 and 50.1 and 54.9 | 109.2 and 97.6 and 100.1 | 89.4 and 85.3 and 86.8 | 7.7 and 6.1 and 7.5 | 102.9 and 97.6 and 97.7 | 19.7 and 13.9 and 8.6 | 113.7 and 102.5 and 100.7 | 43.1 and 35.0 and 39.7 | 105.3 and 102.8 and 93.4 | 88.2 and 77.6 and 78.4 | 6.8 and 6.6 | 95.5 and 99.8 and 99.7 | 12.3 and 14.8 and 9.6 | 101.7 and 102.5 and 100.0 | 26.3 and 24.6 and 23.6 | 99.2 and 97.4 and 102.8 | O=C1C[C@H]2CCCN2C(=O)[C@H](Cc2ccccc2)NC(=O)[C@@H](NC(=O)c2ccc(Cl)s2)CCSCc2cccc(n2)CSCCN1 [compound 33] | Slope normalized to DMSO (proteolytic substrate cleavage over time) (peptide 6.51E-02 uM): 70.8 and 64.0 and 70.3; Slope normalized to DMSO (proteolytic substrate cleavage over time) (peptide 6.67E+01 uM): 6.9 and 8.6 and 6.6; Slope normalized to DMSO (proteolytic substrate cleavage over time) (peptide 7.95E-06 uM): 102.4 and 98.2 and 102.1; Slope normalized to DMSO (proteolytic substrate cleavage over time) (peptide 8.14E-03 uM): 92.1 and 87.0 and 91.2; Slope normalized to DMSO (proteolytic substrate cleavage over time) (peptide 8.33E+00 uM): 12.3 and 13.7 and 5.0; pIC50 (single replicates R1-R3): 6.86 and 6.99 and 6.87; pKi [2]: 6.97 and 7.11 and 6.98
